Data on eleven compounds can be found in patent US20150322120A1 (priority 2012, published 2015).

Experiment [1] deals with rNav 1.7 (Rattus norvegicus, UniProt O08562). In words: cell-based. It is filed as cell-based.
The target of experiment [2] is hNaV1.7 (Homo sapiens, UniProt Q15858). It is filed as cell-based.
[3] abbreviates: read-out: rNav 1.7 % block peptide concentration.

Positions of bridges follow the written chain, without caps; N, C: chain ends. Non-standard residues stand in square brackets, D forms with d. Residues, ends and D or L forms follow the SMILES beside them. Chains are numbered I, II in the order given. No end group written: not given here. *: point of attachment. Glutathionyl = N[C@@H](CCC(=O)N[C@@H](CS*)C(=O)NCC(=O)O)C(=O)O; Hyp = O=C(O)[C@@H]1C[C@@H](O)CN1

rNav 1.7, sequence (O08562 whole entry, looked up): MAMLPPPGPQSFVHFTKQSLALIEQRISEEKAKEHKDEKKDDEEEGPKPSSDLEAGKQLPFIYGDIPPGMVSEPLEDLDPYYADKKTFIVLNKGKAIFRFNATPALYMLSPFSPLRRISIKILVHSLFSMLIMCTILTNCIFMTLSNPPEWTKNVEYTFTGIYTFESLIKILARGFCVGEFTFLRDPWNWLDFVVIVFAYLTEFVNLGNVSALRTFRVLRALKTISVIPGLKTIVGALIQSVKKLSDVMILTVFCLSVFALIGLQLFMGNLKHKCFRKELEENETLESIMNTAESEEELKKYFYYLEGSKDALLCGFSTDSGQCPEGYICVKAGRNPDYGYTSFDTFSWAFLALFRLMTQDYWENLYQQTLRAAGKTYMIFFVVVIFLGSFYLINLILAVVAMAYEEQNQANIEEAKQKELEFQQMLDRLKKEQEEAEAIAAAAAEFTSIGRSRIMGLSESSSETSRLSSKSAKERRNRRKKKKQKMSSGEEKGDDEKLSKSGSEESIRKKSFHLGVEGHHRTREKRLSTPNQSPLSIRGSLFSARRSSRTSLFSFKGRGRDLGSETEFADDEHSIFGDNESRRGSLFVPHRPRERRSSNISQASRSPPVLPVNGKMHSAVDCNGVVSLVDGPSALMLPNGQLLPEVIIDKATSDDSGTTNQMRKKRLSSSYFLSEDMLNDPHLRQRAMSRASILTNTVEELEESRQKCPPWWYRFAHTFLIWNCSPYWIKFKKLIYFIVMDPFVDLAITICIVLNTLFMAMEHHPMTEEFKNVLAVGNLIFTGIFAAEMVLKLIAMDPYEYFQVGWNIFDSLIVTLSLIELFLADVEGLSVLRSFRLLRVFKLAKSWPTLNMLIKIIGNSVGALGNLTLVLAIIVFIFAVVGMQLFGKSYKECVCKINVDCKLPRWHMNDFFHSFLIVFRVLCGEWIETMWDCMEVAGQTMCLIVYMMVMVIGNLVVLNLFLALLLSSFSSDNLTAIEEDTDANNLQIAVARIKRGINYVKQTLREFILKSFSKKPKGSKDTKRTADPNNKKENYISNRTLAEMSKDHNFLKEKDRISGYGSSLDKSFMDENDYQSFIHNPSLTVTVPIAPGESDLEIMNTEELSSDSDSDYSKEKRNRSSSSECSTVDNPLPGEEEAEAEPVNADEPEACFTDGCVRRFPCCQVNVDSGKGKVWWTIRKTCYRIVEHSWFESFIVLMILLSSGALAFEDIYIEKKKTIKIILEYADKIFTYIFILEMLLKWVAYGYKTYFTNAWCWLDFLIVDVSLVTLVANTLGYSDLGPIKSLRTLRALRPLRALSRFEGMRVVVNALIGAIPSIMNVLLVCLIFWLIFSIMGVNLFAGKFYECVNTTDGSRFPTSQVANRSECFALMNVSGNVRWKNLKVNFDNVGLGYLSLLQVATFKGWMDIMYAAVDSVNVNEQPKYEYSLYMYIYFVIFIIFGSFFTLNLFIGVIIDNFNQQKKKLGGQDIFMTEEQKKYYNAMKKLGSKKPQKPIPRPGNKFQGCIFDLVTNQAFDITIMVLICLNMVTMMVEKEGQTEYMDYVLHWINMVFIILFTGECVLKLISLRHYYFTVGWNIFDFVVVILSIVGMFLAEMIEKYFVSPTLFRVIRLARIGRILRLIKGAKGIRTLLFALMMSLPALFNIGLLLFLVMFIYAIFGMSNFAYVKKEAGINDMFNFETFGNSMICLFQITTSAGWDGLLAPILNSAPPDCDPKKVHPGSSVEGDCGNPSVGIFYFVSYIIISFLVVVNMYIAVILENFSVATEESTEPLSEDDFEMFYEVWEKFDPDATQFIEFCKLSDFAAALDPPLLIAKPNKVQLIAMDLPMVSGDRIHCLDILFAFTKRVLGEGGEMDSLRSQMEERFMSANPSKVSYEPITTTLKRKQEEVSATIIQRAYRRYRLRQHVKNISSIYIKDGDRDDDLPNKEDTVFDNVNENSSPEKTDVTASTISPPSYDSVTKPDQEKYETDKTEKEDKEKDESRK
hNaV1.7, sequence (Q15858 whole entry, looked up): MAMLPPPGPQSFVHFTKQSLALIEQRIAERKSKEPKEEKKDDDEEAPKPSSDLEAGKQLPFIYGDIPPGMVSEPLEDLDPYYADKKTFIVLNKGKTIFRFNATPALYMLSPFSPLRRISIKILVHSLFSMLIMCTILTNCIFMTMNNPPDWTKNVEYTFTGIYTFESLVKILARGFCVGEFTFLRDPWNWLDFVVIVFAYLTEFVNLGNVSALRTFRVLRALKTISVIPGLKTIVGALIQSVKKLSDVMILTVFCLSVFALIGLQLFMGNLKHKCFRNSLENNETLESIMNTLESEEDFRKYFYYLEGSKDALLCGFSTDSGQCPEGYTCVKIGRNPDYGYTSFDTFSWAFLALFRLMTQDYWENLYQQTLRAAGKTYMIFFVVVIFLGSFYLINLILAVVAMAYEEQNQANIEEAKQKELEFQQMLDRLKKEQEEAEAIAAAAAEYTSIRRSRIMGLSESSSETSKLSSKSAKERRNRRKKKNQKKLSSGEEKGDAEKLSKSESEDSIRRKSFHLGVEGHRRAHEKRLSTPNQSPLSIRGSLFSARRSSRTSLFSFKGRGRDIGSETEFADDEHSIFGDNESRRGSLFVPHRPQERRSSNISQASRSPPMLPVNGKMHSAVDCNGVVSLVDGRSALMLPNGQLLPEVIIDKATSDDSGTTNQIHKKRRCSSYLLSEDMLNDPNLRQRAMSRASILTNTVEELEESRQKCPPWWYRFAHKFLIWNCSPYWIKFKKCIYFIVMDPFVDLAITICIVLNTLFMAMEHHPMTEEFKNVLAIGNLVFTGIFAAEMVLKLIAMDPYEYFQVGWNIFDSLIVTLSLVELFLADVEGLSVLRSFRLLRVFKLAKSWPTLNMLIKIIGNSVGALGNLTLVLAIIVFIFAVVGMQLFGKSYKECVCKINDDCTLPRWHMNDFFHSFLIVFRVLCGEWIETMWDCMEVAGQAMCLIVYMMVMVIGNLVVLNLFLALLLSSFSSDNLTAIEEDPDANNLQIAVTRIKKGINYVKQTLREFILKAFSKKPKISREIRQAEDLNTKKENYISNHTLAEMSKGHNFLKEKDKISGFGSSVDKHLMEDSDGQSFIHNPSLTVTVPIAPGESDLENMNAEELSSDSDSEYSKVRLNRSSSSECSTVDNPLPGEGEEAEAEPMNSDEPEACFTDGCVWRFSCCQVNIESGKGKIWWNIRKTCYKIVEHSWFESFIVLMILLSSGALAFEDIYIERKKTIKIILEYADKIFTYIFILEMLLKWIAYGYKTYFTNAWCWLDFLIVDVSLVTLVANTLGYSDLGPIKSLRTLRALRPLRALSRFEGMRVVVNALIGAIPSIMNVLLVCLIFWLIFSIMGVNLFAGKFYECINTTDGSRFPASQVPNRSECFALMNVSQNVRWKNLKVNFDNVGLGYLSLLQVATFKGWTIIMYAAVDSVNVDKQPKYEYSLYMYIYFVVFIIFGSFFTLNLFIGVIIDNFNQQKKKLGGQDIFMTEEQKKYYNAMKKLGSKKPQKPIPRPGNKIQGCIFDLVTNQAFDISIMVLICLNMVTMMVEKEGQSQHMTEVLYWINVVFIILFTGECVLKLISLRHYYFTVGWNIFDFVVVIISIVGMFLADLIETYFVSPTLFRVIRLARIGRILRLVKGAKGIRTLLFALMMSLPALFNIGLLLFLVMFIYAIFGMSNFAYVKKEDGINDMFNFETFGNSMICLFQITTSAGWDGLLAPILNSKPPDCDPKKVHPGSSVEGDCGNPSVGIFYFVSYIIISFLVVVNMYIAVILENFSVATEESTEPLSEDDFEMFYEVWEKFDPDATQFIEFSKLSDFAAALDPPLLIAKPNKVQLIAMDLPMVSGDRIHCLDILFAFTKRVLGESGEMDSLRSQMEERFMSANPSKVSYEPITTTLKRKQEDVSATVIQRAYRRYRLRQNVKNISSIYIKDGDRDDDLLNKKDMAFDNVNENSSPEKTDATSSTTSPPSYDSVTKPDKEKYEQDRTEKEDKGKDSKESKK

On to `CC(C)C[C@@H]1NC(=O)[C@H](CCCCN)NC(=O)CNC(=O)[C@@H]2CSSC[C@@H]3NC(=O)[C@H](Cc4ccccc4)NC(=O)CNC(=O)[C@H](CO)NC(=O)[C@H](CSSC[C@H](NC(=O)[C@H](Cc4c[nH]c5ccccc45)NC(=O)CN)C(=O)NCC(=O)N[C@@H](CC(=O)O)C(=O)N4C[C@H](O)C[C@H]4C(=O)NCC(=O)N[C@@H](C)C(=O)N[C@@H]([C@@H](C)O)C(=O)N2)NC(=O)[C@H](CSSC[C@@H](C(=O)N[C@@H](CCCCN)C(=O)N[C@@H](CC(=O)O)C(=O)N[C@@H](CCCCN)C(=O)N[C@@H](CO)C(=O)N[C@@H](CO)C(=O)N[C@@H](C)C(=O)O)NC(=O)[C@H]([C@@H](C)O)NC(=O)CNC(=O)[C@H]([C@@H](C)O)NC(=O)[C@H](Cc2ccc(O)cc2)NC(=O)[C@H](CSSC[C@H](NC(=O)CC[C@H](N)C(=O)O)C(=O)NCC(=O)O)NC(=O)[C@H](CC(=O)O)NC3=O)NC(=O)[C@H](Cc2ccc(O)cc2)NC(=O)[C@H](CC(C)C)NC(=O)[C@H](CCCNC(=N)N)NC1=O` [C.geeo1[K27G]], for which the inhibition at 33 µM in experiment [1] (setting [3]) is 60%.

Turning to `CC[C@@H]1NC(=O)[C@H](CC(=O)O)NC(=O)[C@@H]2CSSC[C@@H]3NC(=O)[C@H]([C@@H](C)O)NC(=O)[C@H](C)NC(=O)CNC(=O)[C@@H]4C[C@@H](O)CN4C(=O)[C@H](CC(=O)O)NC(=O)CNC(=O)[C@@H](NC(=O)[C@H](Cc4c[nH]c5ccccc45)NC(=O)CN)CSSC[C@H](NC(=O)[C@H](CSSC[C@@H](C(=O)N[C@@H](CCCCN)C(=O)N[C@@H](CC(=O)O)C(=O)N[C@@H](CCCCN)C(=O)N[C@@H](CO)C(=O)N[C@@H](CO)C(=O)N[C@@H](C)C(=O)O)NC(=O)[C@H]([C@@H](C)O)NC(=O)[C@H](CCCCN)NC(=O)[C@H]([C@@H](C)O)NC(=O)[C@H](Cc4ccc(O)cc4)NC1=O)NC(=O)[C@H](Cc1ccc(O)cc1)NC(=O)[C@H](CC(C)C)NC(=O)[C@H](CCCNC(=N)N)NC(=O)[C@H](CC(C)C)NC(=O)[C@H](CCCCN)NC(=O)CNC3=O)C(=O)N[C@@H](CO)C(=O)NCC(=O)N[C@@H](Cc1ccccc1)C(=O)N2` [C.geo1[C24Abu]], the inhibition at 33 µM in experiment [1] (setting [3]) worked out at 20%.

In the case of `CC(=O)NCSC[C@@H]1NC(=O)[C@H](CC(=O)O)NC(=O)[C@@H]2CSSC[C@@H]3NC(=O)[C@H]([C@@H](C)O)NC(=O)[C@H](C)NC(=O)CNC(=O)[C@@H]4C[C@@H](O)CN4C(=O)[C@H](CC(=O)O)NC(=O)CNC(=O)[C@@H](NC(=O)[C@H](Cc4c[nH]c5ccccc45)NC(=O)CN)CSSC[C@H](NC(=O)[C@H](CSSC[C@@H](C(=O)N[C@@H](CCCCN)C(=O)N[C@@H](CC(=O)O)C(=O)N[C@@H](CCCCN)C(=O)N[C@@H](CO)C(=O)N[C@@H](CO)C(=O)N[C@@H](C)C(=O)O)NC(=O)[C@H]([C@@H](C)O)NC(=O)[C@H](CCCCN)NC(=O)[C@H]([C@@H](C)O)NC(=O)[C@H](Cc4ccc(O)cc4)NC1=O)NC(=O)[C@H](Cc1ccc(O)cc1)NC(=O)[C@H](CC(C)C)NC(=O)[C@H](CCCNC(=N)N)NC(=O)[C@H](CC(C)C)NC(=O)[C@H](CCCCN)NC(=O)CNC3=O)C(=O)N[C@@H](CO)C(=O)NCC(=O)N[C@@H](Cc1ccccc1)C(=O)N2` [C.geo1[C24Cys(Acm)]], the inhibition at 33 µM in experiment [1] (setting [3]) worked out at 70%.

In the case of `CC(C)C[C@@H]1NC(=O)[C@H](CCCCN)NC(=O)CNC(=O)[C@@H]2CSSC[C@@H]3NC(=O)[C@H](Cc4ccccc4)NC(=O)CNC(=O)[C@H](CO)NC(=O)[C@H](CSSC[C@H](NC(=O)[C@H](Cc4c[nH]c5ccccc45)NC(=O)CN)C(=O)NCC(=O)N[C@@H](CC(=O)O)C(=O)N4C[C@H](O)C[C@H]4C(=O)NCC(=O)N[C@@H](C)C(=O)N[C@@H]([C@@H](C)O)C(=O)N2)NC(=O)[C@H](CSSC[C@@H](C(=O)N[C@@H](CCCCN)C(=O)N[C@@H](CC(=O)O)C(=O)N[C@@H](CCCCN)C(=O)N[C@@H](CO)C(=O)N[C@@H](CO)C(=O)N[C@@H](C)C(=O)O)NC(=O)[C@H]([C@@H](C)O)NC(=O)[C@H](CCCCN)NC(=O)[C@H]([C@@H](C)O)NC(=O)[C@H](Cc2ccc(O)cc2)NC(=O)[C@H](CCC(=O)O)NC(=O)[C@H](CC(=O)O)NC3=O)NC(=O)[C@H](Cc2ccc(O)cc2)NC(=O)[C@H](CC(C)C)NC(=O)[C@H](CCCNC(=N)N)NC1=O` [C.geo1[C24E]] (H-GWCGD[Hyp]GATCGKLRLYCCSGFCDEYTKTCKDKSSA-OH; disulfide 3-18, 10-22, 17-29), in experiment [1] (setting [3]), the inhibition at 33 µM was 15%.

In the case of `CC(C)C[C@@H]1NC(=O)[C@H](CCCCN)NC(=O)CNC(=O)[C@@H]2CSSC[C@@H]3NC(=O)[C@H](Cc4ccccc4)NC(=O)CNC(=O)[C@H](CO)NC(=O)[C@H](CSSC[C@H](NC(=O)[C@H](Cc4c[nH]c5ccccc45)NC(=O)CN)C(=O)NCC(=O)N[C@@H](CC(=O)O)C(=O)N4C[C@H](O)C[C@H]4C(=O)NCC(=O)N[C@@H](C)C(=O)N[C@@H]([C@@H](C)O)C(=O)N2)NC(=O)[C@H](CSSC[C@@H](C(=O)N[C@@H](CCCCN)C(=O)N[C@@H](CC(=O)O)C(=O)N[C@@H](CCCCN)C(=O)N[C@@H](CO)C(=O)N[C@@H](CO)C(=O)N[C@@H](C)C(=O)O)NC(=O)[C@H]([C@@H](C)O)NC(=O)[C@H](CCCCN)NC(=O)[C@H]([C@@H](C)O)NC(=O)[C@H](Cc2ccc(O)cc2)NC(=O)[C@H](CCCCN)NC(=O)[C@H](CC(=O)O)NC3=O)NC(=O)[C@H](Cc2ccc(O)cc2)NC(=O)[C@H](CC(C)C)NC(=O)[C@H](CCCNC(=N)N)NC1=O` [C.geo1[C24K]] (H-GWCGD[Hyp]GATCGKLRLYCCSGFCDKYTKTCKDKSSA-OH; disulfide 3-18, 10-22, 17-29), the inhibition at 33 µM in experiment [1] (setting [3]) turned out to be 20%.

As for `CC(C)C[C@@H]1NC(=O)[C@H](CCCCN)NC(=O)CNC(=O)[C@@H]2CSSC[C@@H]3NC(=O)[C@H](Cc4ccccc4)NC(=O)CNC(=O)[C@H](CO)NC(=O)[C@H](CSSC[C@H](NC(=O)[C@H](Cc4c[nH]c5ccccc45)NC(=O)CN)C(=O)NCC(=O)N[C@@H](CC(=O)O)C(=O)N4C[C@H](O)C[C@H]4C(=O)NCC(=O)N[C@@H](C)C(=O)N[C@@H]([C@@H](C)O)C(=O)N2)NC(=O)[C@H](CSSC[C@@H](C(=O)N[C@@H](CCCCN)C(=O)N[C@@H](CC(=O)O)C(=O)N[C@@H](CCCCN)C(=O)N[C@@H](CO)C(=O)N[C@@H](CO)C(=O)N[C@@H](C)C(=O)O)NC(=O)[C@H]([C@@H](C)O)NC(=O)[C@H](CCCCN)NC(=O)[C@H]([C@@H](C)O)NC(=O)[C@H](Cc2ccc(O)cc2)NC(=O)[C@H](CO)NC(=O)[C@H](CC(=O)O)NC3=O)NC(=O)[C@H](Cc2ccc(O)cc2)NC(=O)[C@H](CC(C)C)NC(=O)[C@H](CCCNC(=N)N)NC1=O` [C.geo1[C24S]] (H-GWCGD[Hyp]GATCGKLRLYCCSGFCDSYTKTCKDKSSA-OH; disulfide 3-18, 10-22, 17-29), the inhibition at 33 µM in experiment [1] (setting [3]) is 20%.

For `CC(C)C[C@@H]1NC(=O)[C@H](CCCCN)NC(=O)CNC(=O)[C@@H]2CSSC[C@@H]3NC(=O)[C@H](Cc4ccccc4)NC(=O)CNC(=O)[C@H](CO)NC(=O)[C@H](CSSC[C@H](NC(=O)[C@H](Cc4c[nH]c5ccccc45)NC(=O)CN)C(=O)NCC(=O)N[C@@H](CC(=O)O)C(=O)N[C@@H](C)C(=O)NCC(=O)N[C@@H](C)C(=O)N[C@@H]([C@@H](C)O)C(=O)N2)NC(=O)[C@H](CSSC[C@@H](C(=O)N[C@@H](CCCCN)C(=O)N[C@@H](CC(=O)O)C(=O)N[C@@H](CCCCN)C(=O)N[C@@H](CO)C(=O)N[C@@H](CO)C(=O)N[C@@H](C)C(=O)O)NC(=O)[C@H]([C@@H](C)O)NC(=O)[C@H](CCCCN)NC(=O)[C@H]([C@@H](C)O)NC(=O)[C@H](Cc2ccc(O)cc2)NC(=O)[C@H](CSSC[C@H](NC(=O)CC[C@H](N)C(=O)O)C(=O)NCC(=O)O)NC(=O)[C@H](CC(=O)O)NC3=O)NC(=O)[C@H](Cc2ccc(O)cc2)NC(=O)[C@H](CC(C)C)NC(=O)[C@H](CCCNC(=N)N)NC1=O` [C.geo1[O6A]] (H-GWCGDAGATCGKLRLYCCSGFCDC(Glutathionyl)YTKTCKDKSSA-OH; disulfide 3-18, 10-22, 17-29), the inhibition at 33 µM in experiment [1] (setting [3]) is 60%.

“CVGRDSKCGP PPCCMGMTCN YERVRKCT [SEQ ID 025]”: the “activity against rNav1.7” value in experiment [1] is on record as “not active”. Also, the “activity against hNav1.7” value in experiment [2] is given as “not active”.

For “DWCGDAGDACGTLKLRCCSGLCNQYSGTCTG [C. geo2]”, in experiment [2], the “% block of hNaV1.7” value was determined as 69%.

In the case of “GWCGDOGATCGKLRLYCCSGFCD(Abu)YTKTCKDKS_A [C. geo1[C24Abu,des-Ser34]]”, in experiment [1], the “% block of NaV1.7 from rat” value is reported as 20% and the “reversibility of NaV1.7 block” value was “quickly reversible”.

As to “I: GWCGD[Hyp]GATCGKLRLYCCSGFCDCYTKTCKDKSSA / II: GWCGD[Hyp]GATCGKLRLYCCSGFCDCYTKTCKDKSSA (disulfide I:3-I:18, I:10-I:22, I:17-I:29, I:24-II:24, II:3-II:18, II:10-II:22, II:17-II:29) [C.geo1[dimer]]”, in experiment [1] (setting [3]), the inhibition at 30 µM came to 70%.
